In brackets after ≈: the same amount, converted by molar mass. Like-named read-outs stand apart in the source and are kept apart here. Some results are limits rather than exact numbers.

Results on three compounds are retold here after paper PMC3723632, “A Multi-targeted Drug Candidate with Dual Anti-HIV and Anti-HSV Activity” (PLoS Pathogens, 2013).

One assay concerns CCR5. Put plainly: Flow cytometry of CCR5 expression on PBMC. The format is cell-based, human. The note with it: for decrease of CCR5 expression on the cell surface / CCR5 decrease: 24 h; for CCR5 expression, % of control: 72 h. Here is the method: (§1) Figure 9 Expression of CC-chemokines, CCR5 and chemokine mRNA expression in PBMC cultures after drug treatment. Panel A: Production of CC-chemokines by PBMC and the effects of adefovir, tenofovir, and PMEO-DAPym on the expression of the CCR5 receptor. Freshly isolated PBMCs from four healthy donors were incubated for 24 h with medium only (NC) or with adefovir, tenofovir, or PMEO-DAPym. We collected the supernatants and measured the concentrations of MIP-1α (▪), MIP-1β (▴), and RANTES (•) using a Bioplex system (Bio-Rad, Hercules, CA). Shown are means ± SEM. The cells were also collected, and the expression of the CCR5 receptor (□) was measured with flow cytometry using the PE-labeled CCR5 (clone 2D7) mAb; it is shown as percentage of control (± SEM) from four independent representative experiments. Panel B: Chemokine mRNA expression upon PMEO-DAPym exposure to PBMC. RT-PCR analysis of MIP-1α, MIP-1β, RANTES, and GAPDH (control) expression in PBMC treated with 100-µg/ml PMEO-DAPym for 4 h. Similar results were obtained with PBMC from three different donors. Results from one representative donor are shown.
Figure 11 Expression of the HIV-1 coreceptor CCR5 on PBMCs after treatment with adefovir, tenofovir, or PMEO-DAPym. We treated PBMC with the drugs for 24 h and collected and analyzed the cells using flow cytometry. Cell surface expression of CD4 and the chemokine receptor CCR5 were measured with the fluorescein isothiocyanate-labeled CD4 specific mAb (clone SK3) and the phycoerythrin-labeled CCR5 (clone 2D7). The percentages of positive cells in each quadrant of the dot plots are given. The data shown are from one representative experiment that was independently repeated at least four times. TEXT PRINTED IN THE PICTURE: adefovir: 54% (500 μg/ml); 7% (500 μg/ml); 6% (500 μg/ml) | tenofovir: 50% (500 μg/ml); 6% (500 μg/ml); 5% (500 μg/ml) | PMEO-DAPym: 54% (500 μg/ml); 1% (500 μg/ml); 2% (500 μg/ml); 55% (100 μg/ml); 1% (100 μg/ml); 2% (100 μg/ml); 54% (20 μg/ml); 3% (20 μg/ml); 3% (20 μg/ml) DOUBTS OF THE COPYIST ABOUT THIS PICTURE: The percentages are quadrant labels in dot plots (axes: CD4 expression, CCR5 expression). No measure is printed beside them. For each plot they are listed in the order upper left, upper right, lower right. / The Control plot (51%, 8%, 6%) is left out because it is not a substance.
PBMC were cultured in the presence of adefovir, tenofovir, and PMEO-DAPym and incubated at 37°C in a humidified, 5% CO2-controlled atmosphere. The expression of cellular activation markers was measured after 3 days of culture. Briefly, after washing the cells with PBS containing 2% FCS, we incubated them with PerCP-conjugated anti-CD4 mAb (clone SK3) in combination with PE-conjugated anti-CD25, anti-CD69, or anti-HLA-DR mAbs for 30 min at room temperature. For aspecific background staining, cells were stained in parallel with Simultest Control IgG γ1/γ2a and PerCP-conjugated mouse IgG1. Finally, the cells were washed with PBS, fixed with 1% formaldehyde solution, and analyzed with a FACSCalibur (BD Biosciences, San Jose, CA); data were acquired with CellQuest software and further analyzed with the FLOWJO software (Tree Star, San Carlos, CA). […], and PBMC were incubated with PerCP-conjugated anti-CD4 mAb (clone SK3) in combination with APC-conjugated anti-CXCR4 mAb (clone 12G5) and PE-conjugated anti-CCR5 (clone 2D7) or anti-CXCR3 (clone 1C6). To evaluate the biological effects of the β-chemokines produced by drug-treated PBMC, freshly isolated PBMC were incubated for 1 h at 37°C with supernatants collected from PBMC cultures treated with compounds for 24 h. Then, cells were incubated with PerCP-conjugated anti-CD4 mAb (clone SK3) in combination with PE-conjugated anti-CCR5 mAb (clone 2D7) for 30 min at room temperature. […]

In a further assay the test system is HSV-1 and HSV-2 strains. Nature of the assay: HSV cytopathicity assay in HEL cell cultures, HSV-1 and HSV-2 stated together. The format is cell-based. Here is the method: Figure 2 Antiherpetic activity of test compounds in cell culture. Confluent HEL cell cultures were exposed to 100 TCID50 of clinical virus isolates [wild-type HSV-1 (panel A), wild-type HSV-2 (panel B), TK^− HSV-1 (panel C) and TK^− HSV-2 (panel D)] in the presence of drugs at different concentrations and incubated for 3 days at 37°C. Then, the cytopathicity was determined microscopically and the EC50 values determined. ^aEC50, 50% effective concentration or compound concentration required to reduce virus-induced cytopathicity (CPE) by 50%. Data shown are the means of at least two independent experiments. The HSV-1, HSV-2, HSV-1 TK^−, and HSV-2 TK^− clinical isolates have been described in reference 19, including the nature of the mutations in the TK gene of the acyclovir-resistant virus strains.

Another assay relates to PBMC. Put plainly: Bio-Plex chemokine assay in PBMC cultures. It counts as cell-based, human. The note with it: for MIP-1β induced: 24 h; for production of CC-chemokines: even at 500 µg/ml. Here is the method: as §1
Freshly isolated PBMC were cultured in the presence of adefovir, tenofovir, and PMEO-DAPym, and culture supernatants were collected after 24 h. We determined the cytokine production profile using the Bio-Plex 200 system (Bio-Rad, Hercules, CA) and a Bio-Plex Human chemokine assay according to the manufacturer's instructions and as described in detail earlier. The assay kit contains beads conjugated with mAbs specific for interferon-inducible protein-10 (IP-10), macrophage inflammatory protein-1α (MIP-α), and MIP-1β, and regulated on activation normal T-cell expressed and secreted (RANTES). For each chemokine, eight standards ranging from approximately 1.5 pg/ml to 32,000 pg/ml were constructed, and the minimum detectable dose was between 1.5 pg/ml and 8 pg/ml. Standard curves and the concentrations of chemokines within samples were generated with the Bio-Plex Manager 4.1 software.

A further assay deals with HSV-2 (G). Put plainly: HSV-2 infection of primary monocyte/macrophage (M/M) cultures. It counts as cell-based.
Another assay relates to HIV-2(ROD). Nature of the assay: Anti-HIV-2 activity in CD4+ T-lymphocyte CEM cell cultures. The format is cell-based. The note with it: Human immunodeficiency virus 2, CCRF-CEM. The text has this:
(§2) Human CD4 ^+ T-lymphocyte CEM cell cultures were inoculated with HIV-1 and HIV-2 and exposed to adefovir, tenofovir, or PMEO-DAPym. […]

The next assay relates to HIV-1(IIIB). Put plainly: Anti-HIV-1 activity in CD4+ T-lymphocyte CEM cell cultures. The format is cell-based. The note with it: Human immunodeficiency virus 1, CCRF-CEM, virus-induced cytopathicity.
Source text: as §2

The mark [1] stands for this setting: thirteen clinical wild-type HSV-1 and HSV-2 isolates, read-out: average EC50.
[2] abbreviates: wild-type laboratory HSV-1 and HSV-2 strains, range, read-out: EC50.
Setting [3] is: HIV-2(ROD), CEM, virus-induced cytopathicity, read-out: EC50.

On to `Nc1cc(OCCOCP(=O)(O)O)nc(N)n1` [PMEO-DAPym, 6-phosphonylmethoxyethoxy-2,4-diaminopyrimidine], for which the “decrease of CCR5 expression on the cell surface” value in the assay on CCR5 (20 µg/ml) is reported as 60%; with CCR5 (100 µg/ml) it was at least 75%; in the assay on CCR5 (500 µg/ml) it was at least 75%. The “CCR5 expression, % of control” value with CCR5 (20 µg/ml) is on record as 60%; in the assay on CCR5 (100 µg/ml) it was 38%; with CCR5 (500 µg/ml) it was 10%. In addition, the 50% effective concentration (EC50) was 2.4 µg/mL (≈ 9.08 µM) with HSV-1 and HSV-2 strains (TK− HSV isolates, read-out: average EC50); about 2 µg/mL (≈ 7.57 µM) in the assay on HSV-1 and HSV-2 strains (setting [1]); 2.6 to 6.3 µg/mL (≈ 9.84 to 23.8 µM) with HSV-1 and HSV-2 strains (setting [2]); 0.66 ± 0.19 µg/mL (≈ 2.5 µM) in the assay with HIV-2(ROD) (setting [3]); 0.9 ± 0.4 µg/mL (≈ 3.41 µM) in the assay with HIV-1(IIIB). For the same compound, the “effect on IP-10 levels” value with PBMC is “did not affect IP-10 levels”. For the same compound, the MIP-1β induced in the assay on PBMC (20 µg/ml) amounted to 7.5 ng/mL; with PBMC (100 µg/ml), 20 ng/mL; in the assay on PBMC (500 µg/ml) it was 27 ng/mL. The “Cytopathicity (CPE) on macrophages 6 days after infection % CPE” value (shortened to “Cytopathicity (CPE) … after infection % CPE”) was 85% with HSV-2 (G) (0.0032 µg/ml), 35% in the assay on HSV-2 (G) (0.4 µg/ml) and 0–15% with HSV-2 (G) (2 µg/ml).

As for `C[C@H](Cn1cnc2c(N)ncnc21)OCP(=O)(O)O` [Tenofovir, 9-(2-phosphonylmethoxypropyl)adenine], the CCR5 decrease result in the assay with CCR5 is reported as “Neither adefovir nor tenofovir induced a marked CCR5 decrease”. The half-maximal effective concentration (EC50) with HSV-1 and HSV-2 strains (setting [1]) was about 130 µg/mL (≈ 453 µM); in the assay on HSV-1 and HSV-2 strains (setting [2]) it was 105 to 122 µg/mL (≈ 366 to 425 µM); with HIV-2(ROD), 0.43 ± 0.41 µg/mL (≈ 1.5 µM); with HIV-1(IIIB), 0.36 ± 0.24 µg/mL (≈ 1.25 µM). In the assay with PBMC, the “production of CC-chemokines” value is recorded as “Neither adefovir nor tenofovir induced notable production of CC-chemokines”. Besides, the “Cytopathicity (CPE) … after infection % CPE” value amounted to 85% in the assay with HSV-2 (G) (0.0032 µg/ml), 40% in the assay with HSV-2 (G) (0.4 µg/ml) and 30% with HSV-2 (G) (2 µg/ml).

With `Nc1ncnc2c1ncn2CCOCP(=O)(O)O` [Adefovir, 9-(2-phosphonylmethoxyethyl)adenine], in the assay on CCR5, the CCR5 decrease entry is recorded as “Neither adefovir nor tenofovir induced a marked CCR5 decrease”. For the same compound, the EC50 was about 6 µg/mL (≈ 22 µM) in the assay with HSV-1 and HSV-2 strains (setting [1]); 2.6 to 6.3 µg/mL (≈ 9.52 to 23.1 µM) in the assay with HSV-1 and HSV-2 strains (setting [2]); 1.9 ± 1.1 µg/mL (≈ 6.95 µM) in the assay on HIV-2(ROD) (setting [3]); 0.96 ± 0.24 µg/mL (≈ 3.51 µM) in the assay on HIV-1(IIIB). Moreover, in the assay on PBMC, the “production of CC-chemokines” value is reported as “Neither adefovir nor tenofovir induced notable production of CC-chemokines”. Also, the “Cytopathicity (CPE) … after infection % CPE” value is recorded as 80% in the assay with HSV-2 (G) (0.0032 µg/ml), 30% with HSV-2 (G) (0.4 µg/ml) and 0–5% with HSV-2 (G) (2 µg/ml).
